From article PMC5326799, “Discovery of Compounds that Positively Modulate the High Affinity Choline Transporter” (Frontiers in Molecular Neuroscience, 2017)
pEC50, pIC50, pKi: −log10 of the molar value. Entries after “also recorded” stand apart in the source; their conditions may differ. Read-outs that look alike come from different tables or passages of the source.

Experiments:
CHT [1] = molecular target: T1, CHT (Homo sapiens, UniProt Q9GZV3); test: cell-based
T1 sequence (Q9GZV3 1-580): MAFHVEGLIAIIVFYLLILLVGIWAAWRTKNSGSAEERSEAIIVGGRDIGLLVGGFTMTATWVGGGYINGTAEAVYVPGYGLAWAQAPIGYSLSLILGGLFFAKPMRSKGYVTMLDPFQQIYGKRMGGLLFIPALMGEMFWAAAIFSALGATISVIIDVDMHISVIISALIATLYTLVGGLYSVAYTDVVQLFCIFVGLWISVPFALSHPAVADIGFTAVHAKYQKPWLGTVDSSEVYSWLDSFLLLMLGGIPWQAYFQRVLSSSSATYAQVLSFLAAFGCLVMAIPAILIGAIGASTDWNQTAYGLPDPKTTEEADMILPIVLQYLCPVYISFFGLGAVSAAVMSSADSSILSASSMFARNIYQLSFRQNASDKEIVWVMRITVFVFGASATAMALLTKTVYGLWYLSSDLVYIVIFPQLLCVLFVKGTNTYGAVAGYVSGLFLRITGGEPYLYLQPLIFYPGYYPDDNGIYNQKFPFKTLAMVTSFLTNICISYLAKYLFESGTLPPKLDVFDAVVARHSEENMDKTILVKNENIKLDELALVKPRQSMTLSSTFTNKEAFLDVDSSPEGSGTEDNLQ

[2] = molecular target: T2, high affinity choline transporter (CHT) (Homo sapiens, UniProt Q9GZV3); test: Radiometric [3H]Choline uptake assay (scintillation proximity) in HEK cells expressing CHT; format: cell-based; settings: for 3H-choline uptake % effect 1 μM: 1 μM compound; for 3H-choline uptake % effect 1 μM / 3H-choline uptake % effect 10 μM: 100% = 10 μM Staurosporine, 0% = DMSO; for 3H-choline uptake % effect 10 μM: 10 μM compound; for CHT modulator classification in radiometric assay: single point 1 and 10 μM, actives in 10-point dose response
T2 construct: expressed in transfected cells; host or cells: HEK-293, lentiviral transduction, single-cell clone CHT-WT4
T2 sequence (Q9GZV3 1-580): T1 sequence (Q9GZV3 1-580)
Procedure: Uptake of [^3H]Choline (American Radiochemicals; ART 0197; 1,000 Ci/vial; Specific Activity 60–90 Ci/mmol) was measured in HEK cells expressing the high affinity choline transporter (CHT), clone WT4. Cells were plated at 50,000 cells /well in 200 μL culture media on a PDL coated Cytostar-T 96 well plate (Perkin Elmer) 24 h prior to assay. On the day of assay, following two washes and a 30 min pre-incubation at 37°C in 50 μL Na(−) free buffer (0.54 mM KCl, 1.3 mM CaCl2, 0.53 mM MgCl2, 0.4 mM MgSO4, 0.37 mM KH2PO4, 240 mM Sucrose, 4.4 mM Tris-phosphate, 5.5 mM Glycine, 5.6 mM D-Glucose; pH 6.5 with KOH), 25 μL 4X control or test compounds in Na(−) buffer were added to the cells. […] Final DMSO concentration was 0.25%. Following a 30 min incubation at 37°C, 25 μL [^3H]Choline diluted to 320 nM (80 nM final concentration) was added in Na(+) buffer (0.54 mM KCl, 1.3 mM CaCl2, 0.53 mM MgCl2, 0.4 mM MgSO4, 0.37 mM KH2PO4, 138 mM NaCl, 0.28 mM Na2HPO4, 5.5 mM Glycine, 5.6 mM D-Glucose; pH 6.5 with KOH). Plates were sealed with TopSeals (Perkin Elmer) and incubated in darkness for 3 h at room temperature before reading using a Wallac Microbeta, 1 min/well.
A preponderance of literature precedent for measuring high affinity choline uptake (HACU) utilizes a radiometric assay to measure [^3H]Choline transport in preparations. […] A number of parameters were assessed in assay development including cell seeding density, time of assay post-seeding, plate coating, buffer composition, read time and choline concentration.

CHT [3] = molecular target: T1, CHT; test: Live cell anti-FLAG immunolabeling of CHT cell surface localization in CHT-WT4 cells; format: cell-based; set-up: expressed in transfected cells; host or cells: HEK-293, lentiviral transduction, single-cell clone CHT-WT4; settings: 1 or 10 μM for 1 h, qualitative observations
Procedure: Media was removed and cells were washed once with HBSS (+/+). 1 μg/mL Anti-FLAG antibody (F3165, Sigma) was diluted in HBSS (+/+) and added to the cellular monolayer for 30 mins. After incubation, cells were washed three times with HBSS (+/+) followed by incubation with 1:5,000 AF488 labeled secondary antibody (LifeTech) diluted in HBSS (+/+) for 30 min. After three washes, cells were fixed with 4% paraformaldehyde in HBSS (+/+) for 15 min. Nuclei were counterstained with the nuclear dye Hoechst. All images were captured and analyzed on an epifluorescent microsope or Cellomics platform.
Thus, understanding compound effects on CHT density and activation state in the synaptic membrane may aid interpretation of the effects on cholinergic neurotransmission. Conventional methods such as cell surface biotinylation present challenges in terms of the requirement of large quantities of cells and low throughput. […] Our CHT overexpression construct contains a FLAG tag on the N-terminus which we sought to utilize with antibody detection in non-permeabilized cells. […] We proceeded to investigate the effect of compound treatment in more detail. Cells were incubated with compounds at 1 or 10 μM for 1 h before immunolabeling and visualization.

CHT [4] = molecular target: T1, CHT; settings: for D9-choline uptake % effect 1 μM: 1 μM compound; for D9-choline uptake % effect 1 μM / D9-choline uptake % effect 10 μM: HEK293 CHT-WT4, DMSO negative control, 10 μM STS positive control; for D9-choline uptake % effect 10 μM: 10 μM compound
CHT [5] = molecular target: T1, CHT; test: SURFE2R solid supported membrane (SSM) electrophysiology on CHT-WT4 membrane fragments; format: biochemical; set-up: expressed in transfected cells; host or cells: HEK-293, lentiviral transduction, single-cell clone CHT-WT4
Procedure: A single cell clone of HEK293 overexpressing CHT (CHT-WT4) cells was used to generate membrane fragments to assess on the SURFE^2R platform. Cells were grown to 80% confluence and harvested. The membrane fraction was collected by ultracentrifugation and the plasma membranes were isolated by density gradient centrifugation (Schulz et al., [2008]).
All experiments were performed on the SURFE^2R N1 device and the matching N1 sensor blanks (Nanion Technologies GmbH, Munich). The sensor blanks include a 3 mm diameter gold surface inside a small well coated by incubating 50 μL of 0.5 mM 1-octadecanethiol dissolved in isopropanol for 30 min, rinsed once with isopropanol and twice with water (ddH2O) and dried for 30 min at room temperature.
7.5 μg/μL DPhPC (Avanti Polar Lipids) was dissolved in n-Decane. 1.5 μL were added onto the thiol-coated gold surface. Immediately, 80 μL of potassium buffer was added carefully. The CHT membrane preparation was diluted 1:10 with potassium buffer and sonicated. Eight microliter were added directly onto the SSM by submerging the pipette into the buffer and the sensors were centrifuged for 30 min at 2,200 × g. The quality of the SSM was controlled by determination of conductance σ and capacitance C. The SURFE^2R N1 device includes default functions to perform these measurements. Sensors should have a conductance below 3 nS and capacitance below 20 nF.
Prepared sensors were inserted into the faraday cage of the SURFE^2R N1 device and buffers applied via its automatic perfusion system, allowing rapid buffer exchange in a continuous liquid flow. The following buffer addition sequence was used for all experiments: Sodium buffer was applied for 2 s with a flow rate of 200 μl/s to establish a sodium gradient over the membrane. […] During those 6 s the current response was recorded. […]
Raw data were exported as ASCII files, analysis was performed using the scientific graphing and data analysis program IGOR Pro 6 (WaveMetrics, Portland, USA). The evaluated peak currents were determined using a peak detection algorithm. […]

[6] = molecular target: T2, high affinity choline transporter (CHT); test: Radiometric [3H]Choline uptake assay (scintillation proximity) in HEK cells expressing CHT; format: cell-based; settings: HEK293, read-out: % inhibition of [3H]Choline uptake by HC-3, 1 μM
SH-SY5Y cell line = test: [3H]Choline uptake in untransformed SH-SY5Y cell line; format: cell-based; settings: 1 μM HC-3, 10 μM STS
Excerpt: (§1) Supplementary file Image1.JPEG: Supplementary Figure 1 [^3H] […] Click here for additional data file.

[7] = molecular target: high affinity choline transporter (CHT); set-up: method as in earlier work; settings: ref Okuda and Haga, 2000, Okuda et al., cited from earlier work
SK-N-FI cell line = test: [3H]Choline uptake in untransformed SK-N-FI cell line; format: cell-based; settings: 1 μM HC-3, 10 μM STS
Excerpt: as §1

[8] = EC50 estimate, [3H]Choline uptake (positive modulators), CHT-WT4 cells, 10-point dose response
[9] = PAM compounds, 10-point dose response, HEK293 CHT-WT4, n.d. = not detected, read-out: 3H-choline uptake IC50 or EC50
[10] = inhibitor/NAM compounds, 10-point dose response, HEK293 CHT-WT4, read-out: 3H-choline uptake IC50 or EC50

Row | SMILES | pEC50 (CHT [1]) | 3H-choline uptake % effect 1 μM ([2]; HEK293 CHT-WT4) | 3H-choline uptake % effect 10 μM ([2]; HEK293 CHT-WT4) | Effect on cell surface localization of CHT (CHT [3]) | D9-choline uptake % effect 1 μM (CHT [4]) | D9-choline uptake % effect 10 μM (CHT [4]) | CHT modulator classification in radiometric assay [2] | also measured
1 | N#Cc1c[nH]c2ncnc(N3CCC4(CC3)CNCc3ccc(C(F)(F)F)nc34)c12 [Compound 8] | 5.29 | 9.0% | 52.6% | increased cell surface localization; also recorded: distinct increase in apparent cell surface localization | 24.5% | 80.2% | – | –
2 | C[N+]1(C)CCOC(O)(c2ccc(-c3ccc(C4(O)C[N+](C)(C)CCO4)cc3)cc2)C1 (stereo not drawn) [HC-3, hemicholinium-3, reference compound] | – | – | – | increase in cell surface localization; also recorded: increase transporter density on the cell surface | – | – | – | pIC50 (CHT [5]): 7.69; inhibition at 1 µM ([6]; CHT-WT5 clone): ~61%; inhibition at 1 µM ([6]; CHT-WT Pool): ~69%; Effect on [3H]Choline uptake (SH-SY5Y cell line): No effect; pIC50 (CHT [1]): 8.25; pIC50 [2]: 6.94; inhibition at 1 µM ([2]; HEK293, read-out: % inhibition of [3H]Choline uptake by HC-3, 1 μM, CHT-WT4 clone): ~80%; pKi ([7]; Apparsundaram et al., 2001, read-out: Ki, inhibition of choline uptake): 8.30 to 9.00; Effect on [3H]Choline uptake (SK-N-FI cell line): No effect
3 | CNC(=O)C1CCCN1c1nc(Cc2ccccc2F)cc(Nc2cc(C3CC3)[nH]n2)n1 (stereo not drawn) [Compound 6] | 5.69 | 3.6% | 23.6% | no effects; also recorded: no apparent effect | 60.8% | 91.6% | – | –
4 | O=C(CC1=CCCCC1)Nc1ccnc2ccccc12 [Compound 1] | – | – | – | – | – | – | positive allosteric CHT modulators | pEC50 [2, 8]: 6.52; pEC50 [2, 9]: 6.56
5 | O=C(Cn1c(=O)oc2ccccc21)Nc1ccnc2ccccc12 [Compound 2] | – | – | – | – | – | – | positive allosteric CHT modulators | pEC50 [2, 8]: 6.40; pEC50 [2, 9]: 6.38
6 | CNC(=O)C1CCC(Nc2nc(Nc3ccc(S(C)(=O)=O)cc3)ncc2C(F)(F)F)C1 (stereo not drawn) [Compound 7] | 5.60 | −2.4% | 26.7% | no effects; also recorded: no apparent effect | 46.4% | 80.8% | – | –
7 | O=C(NCc1ccc(Cl)cc1)c1cn2c(N3CCNCC3)nccc2n1 [Compound 5] | – | – | – | – | – | – | negative allosteric modulators | pIC50 [2, 10]: 6.17
8 | C[N+](C)(C)CCO [choline, Choline Chloride] | – | – | – | – | – | – | – | pEC50 (CHT [5]): 4.60; Km ([7]; Apparsundaram et al., 2001, read-out: Km, high-affinity sodium-dependent choline uptake): ~2 µM
9 | Cn1ncc2nc(-c3ccnc(N)c3)nc(N3CCNCC3(C)C)c21 [Compound 9] | 5.24 | 24.4% | 100.0% | increased cell surface localization; also recorded: distinct increase in apparent cell surface localization | 30.5% | 64.0% | – | –
10 | COc1ccc(C(=O)NCc2cc(C(C)C)no2)cc1OC1CCN(C)CC1 [ML-352, reference compound] | – | – | – | increase in cell surface localization; also recorded: increase transporter density on the cell surface | 96.3% | 104.1% | – | –
11 | NC(=O)N1C(=O)C(C(=O)Cc2ccccc2)c2cc(F)ccc21 (stereo not drawn) [Compound 3] | – | – | – | – | – | – | positive allosteric CHT modulators | EC50 ([2]; 3H-choline uptake IC50 or EC50(M), PAM compounds, 10-point dose response, HEK293 CHT-WT4, n.d. = not detected): 4.51e-06 M; pEC50 [2, 8]: 5.35
12 | O=C(NCc1ccc(Cl)cc1)c1ccc2snc(N3CCNCC3)c2c1 [Compound 4] | – | – | – | – | 12.3% | 118.1% | negative allosteric modulators | pIC50 (CHT [1]): 5.50; pIC50 [2, 10]: 5.81
13 | Cc1oc2nc3c(c(NC(=O)CN4CCCC4=O)c2c1C)CCCC3 [MKC-231, coluracetam, reference compound] | – | – | – | no apparent effect | – | – | – | Effect on CHT current (SURFE2R) (CHT [5]; CHT-WT4 membrane preparations): not able to detect any effect; Impact on CHT mediated transport, [3H]Choline uptake ([2]; CHT-WT4 cells, 10-point dose response): unable to see any impact; Impact on CHT mediated transport, [3H]Choline uptake ([2]; CHT-WT4 cells, 10-point dose response, listed as MKC231): no apparent effect; Effect on D9-choline uptake (CHT [4]; 10-point dose response): no apparent effect
